In paper PMC12510138, “Asymmetric Synthesis and Biological Evaluation of 1,3‐ and 1,4‐Disubstituted Isoquinoline‐Containing Lipoxin A4 Analogues” (Chemistry (Weinheim an Der Bergstrasse, Germany), 2025):

Legend:
ALX/FPR2 [1] = target: T1, ALX/FPR2 (Homo sapiens, UniProt P25090); test: intracellular Ca2+ flux (Fluo-4) in stably double transfected FPR2+/Gαq+ HEK-293 cells; wild-type HEK-293 cells as negative control; partial agonist; format: cell-based
T1 sequence (P25090 1-351): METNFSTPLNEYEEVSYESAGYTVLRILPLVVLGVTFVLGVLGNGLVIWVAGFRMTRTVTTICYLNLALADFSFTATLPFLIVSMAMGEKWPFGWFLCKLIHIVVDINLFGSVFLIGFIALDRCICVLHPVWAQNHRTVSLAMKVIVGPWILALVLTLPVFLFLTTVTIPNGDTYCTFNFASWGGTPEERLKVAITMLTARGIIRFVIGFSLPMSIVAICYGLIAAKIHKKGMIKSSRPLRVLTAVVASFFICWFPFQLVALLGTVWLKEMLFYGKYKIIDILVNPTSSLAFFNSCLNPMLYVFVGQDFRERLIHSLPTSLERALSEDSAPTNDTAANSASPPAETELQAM

ALX/FPR2 [2] = target: T1, ALX/FPR2; test: intracellular Ca2+ flux (Fluo-4) in stably double transfected FPR2+/Gαq+ HEK-293 cells; wild-type HEK-293 cells as negative control; full endogenous agonist; format: cell-based

Compound | intracellular Ca2+ flux (Fluo-4) in stably double transfected FPR2+/Gαq+ HEK-293 (ALX/FPR2 [1]) [nM] | intracellular Ca2+ flux (Fluo-4) in stably double transfected FPR2+/Gαq+ HEK-293 (ALX/FPR2 [2]) [nM]
CCCCC[C@@H](O)c1nc(/C=C/[C@@H](O)[C@@H](O)CCCC(=O)OC)cc2ccccc12 [(1R)-8] | 100 | 
CCCCC[C@H](O)/C=C/C=C\C=C\C=C\[C@@H](O)[C@@H](O)CCCC(=O)O [compound 1, LXA4] |  | 10
